# Experimental data: patent publication US8685977B2, “Chemical compounds” (Pfizer Limited, priority 2010, dated 2014)
# pIC50: −log10 of the molar value.
# Target: T1, Nav1.7 (or SCN9A) channel (Homo sapiens, UniProt Q15858)
# T1 construct: expressed in transfected cells
# Assay: Nav1.7 PatchXpress 7000 automated electrophysiology assay (HEK cells stably expressing hSCN9A)
# Assay type: cell-based
# Details: voltage-clamped at V1/2 of inactivation, read-out: Nav1.7 EIC50
# Procedure, shortened: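 Automated whole-cell clamp (PatchXpress) of HEK cells stably expressing hSCN9A, at 22-24 °C, in extracellular buffer at pH 7.4. Cells were held at the measured V1/2 of inactivation, then stepped to 0 mV for 20 ms. Single-concentration % inhibition gave EIC50 = concentration × (100 − %inhibition)/%inhibition, excluding <20% or >80%.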
# T1 sequence (Q15858 whole entry): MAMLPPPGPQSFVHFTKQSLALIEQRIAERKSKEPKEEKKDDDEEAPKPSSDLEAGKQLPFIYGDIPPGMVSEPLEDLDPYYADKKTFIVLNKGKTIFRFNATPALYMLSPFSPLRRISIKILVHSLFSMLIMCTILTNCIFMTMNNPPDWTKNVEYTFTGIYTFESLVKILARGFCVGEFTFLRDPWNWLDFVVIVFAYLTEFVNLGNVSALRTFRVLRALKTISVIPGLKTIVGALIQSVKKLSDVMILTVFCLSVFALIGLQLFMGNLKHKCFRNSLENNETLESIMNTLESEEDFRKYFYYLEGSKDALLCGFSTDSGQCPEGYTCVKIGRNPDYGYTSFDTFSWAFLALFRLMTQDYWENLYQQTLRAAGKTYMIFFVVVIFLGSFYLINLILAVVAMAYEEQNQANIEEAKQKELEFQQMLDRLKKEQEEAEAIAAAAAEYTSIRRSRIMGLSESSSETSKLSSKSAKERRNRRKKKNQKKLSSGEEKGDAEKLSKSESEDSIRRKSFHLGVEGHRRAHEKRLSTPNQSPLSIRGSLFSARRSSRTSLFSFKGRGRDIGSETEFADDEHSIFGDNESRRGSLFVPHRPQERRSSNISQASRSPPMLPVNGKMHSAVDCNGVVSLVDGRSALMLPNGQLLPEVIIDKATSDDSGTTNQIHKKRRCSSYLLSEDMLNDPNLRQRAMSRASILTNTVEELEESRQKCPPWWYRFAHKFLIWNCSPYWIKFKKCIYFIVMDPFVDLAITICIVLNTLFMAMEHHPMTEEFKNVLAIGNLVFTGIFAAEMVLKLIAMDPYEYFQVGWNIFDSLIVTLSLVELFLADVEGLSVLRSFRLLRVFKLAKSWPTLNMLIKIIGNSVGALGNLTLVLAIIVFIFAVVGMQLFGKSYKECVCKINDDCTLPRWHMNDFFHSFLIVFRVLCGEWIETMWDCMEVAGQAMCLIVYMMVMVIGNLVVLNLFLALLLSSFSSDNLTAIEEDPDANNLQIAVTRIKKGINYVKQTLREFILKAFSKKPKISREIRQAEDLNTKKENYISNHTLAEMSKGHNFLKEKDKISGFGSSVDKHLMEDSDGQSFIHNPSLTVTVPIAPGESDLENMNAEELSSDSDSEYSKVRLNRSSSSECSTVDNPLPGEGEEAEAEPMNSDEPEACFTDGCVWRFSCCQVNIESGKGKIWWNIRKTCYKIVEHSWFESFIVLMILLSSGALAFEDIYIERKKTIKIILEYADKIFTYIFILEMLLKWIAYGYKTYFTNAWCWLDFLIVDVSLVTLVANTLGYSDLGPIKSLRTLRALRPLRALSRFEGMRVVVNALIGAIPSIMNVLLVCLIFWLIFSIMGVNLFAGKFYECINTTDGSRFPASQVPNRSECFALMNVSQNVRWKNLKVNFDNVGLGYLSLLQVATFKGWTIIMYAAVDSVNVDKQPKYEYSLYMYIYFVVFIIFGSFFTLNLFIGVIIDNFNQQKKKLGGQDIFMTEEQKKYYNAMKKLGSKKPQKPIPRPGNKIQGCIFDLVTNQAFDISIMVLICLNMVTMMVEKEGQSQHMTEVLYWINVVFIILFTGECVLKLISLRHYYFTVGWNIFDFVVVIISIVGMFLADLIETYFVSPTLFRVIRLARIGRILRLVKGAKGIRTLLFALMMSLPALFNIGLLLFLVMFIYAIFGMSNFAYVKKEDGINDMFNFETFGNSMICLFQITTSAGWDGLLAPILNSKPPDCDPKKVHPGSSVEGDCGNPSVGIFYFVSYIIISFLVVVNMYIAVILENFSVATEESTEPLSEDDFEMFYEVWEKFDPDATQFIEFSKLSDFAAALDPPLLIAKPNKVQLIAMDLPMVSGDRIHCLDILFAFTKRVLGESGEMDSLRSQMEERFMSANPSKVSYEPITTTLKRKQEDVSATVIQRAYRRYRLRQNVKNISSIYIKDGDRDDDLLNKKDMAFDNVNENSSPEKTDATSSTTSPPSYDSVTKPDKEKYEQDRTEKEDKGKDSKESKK
row,SMILES,pIC50
1,"COc1cc(Oc2ccc(Cl)c(C(F)(F)F)c2)ccc1C(=O)NS(C)(=O)=O [Example 326, 4-(4-chloro-3-(trifluoromethyl)phenoxy)-2-methoxy-N-(methylsulfonyl)benzamide]",5.39
2,"COc1cc(Oc2ccc(Cl)c(C(F)(F)F)c2)c(F)cc1C(=O)NS(C)(=O)=O [Example 60, 4-[4-chloro-3-(trifluoromethyl)phenoxy]-5-fluoro-2-methoxy-N-(methylsulfonyl)benzamide]",4.48
3,"CS(=O)(=O)NC(=O)c1ccc(Oc2cccc3ccccc23)c(C#N)c1 [Example 283, 3-cyano-N-(methylsulfonyl)-4-(1-naphthyloxy)benzamide]",5.07
4,"COc1ccc(Oc2ccc(C(=O)NS(C)(=O)=O)cc2)c(Cl)c1 [Example 183, 4-(2-chloro-4-methoxyphenoxy)-N-(methylsulfonyl)benzamide]",< 5.00
5,"CC(C)c1ccccc1Oc1cc(F)c(C(=O)NS(C)(=O)=O)cc1F [Example 93, 2,5-difluoro-4-(2-isopropylphenoxy)-N-(methylsulfonyl)benzamide]",< 6.00
6,"CS(=O)(=O)NC(=O)c1cc(F)c(Oc2ccc(Cl)cc2OC(F)(F)F)cc1F [Example 73, 4-[4-chloro-2-(trifluoromethoxy)phenoxy]-2,5-difluoro-N-(methylsulfonyl)benzamide]",6.15
7,"CS(=O)(=O)NC(=O)c1ccc(Oc2ccc(Cl)c(C(F)(F)F)c2)cc1 [Example 15, 4-[4-chloro-3-(trifluoromethyl)phenoxy]-N-(methylsulfonyl)benzamide]",6.03
8,"Cc1ccc(Cl)cc1Oc1cc(F)c(C(=O)NS(C)(=O)=O)cc1F [Example 133, 4-(5-chloro-2-methylphenoxy)-2,5-difluoro-N-(methylsulfonyl)benzamide]",< 5.52
9,"CS(=O)(=O)NC(=O)c1ccc(Oc2cccc(C(F)(F)F)c2)cc1 [Example 163, N-(methylsulfonyl)-4-[3-(trifluoromethyl)phenoxy]benzamide]",4.92
10,"CS(=O)(=O)NC(=O)c1ccc(Oc2ccc(Cl)cc2)cc1 [Example 24, 4-(4-chlorophenoxy)-N-(methylsulfonyl)benzamide]",5.24
11,"Cc1cccc(C)c1Oc1cc(F)c(C(=O)NS(C)(=O)=O)cc1F [Example 104, 4-(2,6-dimethylphenoxy)-2,5-difluoro-N-(methylsulfonyl)benzamide]",< 5.52
12,"CS(=O)(=O)NC(=O)c1cc(F)c(Oc2c(F)cc(F)cc2F)cc1F [Example 94, 2,5-difluoro-N-(methylsulfonyl)-4-(2,4,6-trifluorophenoxy)benzamide]",< 5.52
13,"CC(C)c1cccc(Oc2ccc(C(=O)NS(C)(=O)=O)cc2)c1 [Example 181, 4-(3-isopropylphenoxy)-N-(methylsulfonyl)benzamide]",5.80
14,"CS(=O)(=O)NC(=O)c1ccc(Oc2ccc(Cl)c(Cl)c2)c(C(F)(F)F)c1 [Example 27, 4-(3,4-dichlorophenoxy)-N-(methylsulfonyl)-3-(trifluoromethyl)benzamide]",6.72
15,"Cc1ccc(Cl)c(Oc2ccc(C(=O)NS(C)(=O)=O)cc2)c1 [Example 180, 4-(2-chloro-5-methylphenoxy)-N-(methylsulfonyl)benzamide]",4.49
16,"Cc1ccc(F)c(Oc2cc(F)c(C(=O)NS(C)(=O)=O)cc2F)c1 [Example 122, 2,5-difluoro-4-(2-fluoro-5-methylphenoxy)-N-(methylsulfonyl)benzamide]",5.36

row,SMILES,pIC50
1,"CS(=O)(=O)NC(=O)c1cc(Cl)c(Oc2ccc(Cl)cc2OC(F)(F)F)cc1F [Example 53, 5-chloro-4-[4-chloro-2-(trifluoromethoxy)phenoxy]-2-fluoro-N-(methylsulfonyl)benzamide]",7.20
2,"CCOc1cccc(Oc2cc(F)c(C(=O)NS(C)(=O)=O)cc2Cl)c1 [Example 298, 5-chloro-4-(3-ethoxyphenoxy)-2-fluoro-N-(methylsulfonyl)benzamide]",6.70
3,"COc1ccc(Oc2ccc(C(=O)NS(C)(=O)=O)cc2)c(F)c1F [Example 196, 4-(2,3-difluoro-4-methoxyphenoxy)-N-(methylsulfonyl)benzamide]",4.96
4,"CS(=O)(=O)NC(=O)c1cc(F)c(Oc2ccccc2C(F)(F)F)cc1F [Example 113, 2,5-difluoro-N-(methylsulfonyl)-4-[2-(trifluoromethyl)phenoxy]benzamide]",< 5.52
5,"CC(C)c1cccc(Oc2cc(F)c(C(=O)NS(C)(=O)=O)cc2F)c1 [Example 158, 2,5-difluoro-4-(3-isopropylphenoxy)-N-(methylsulfonyl)benzamide]",6.08
6,"Cc1ccc(F)cc1Oc1cc(F)c(C(=O)NS(C)(=O)=O)cc1F [Example 115, 2,5-difluoro-4-(5-fluoro-2-methylphenoxy)-N-(methylsulfonyl)benzamide]",< 5.52
7,"Cc1cccc(Oc2ccc(C(=O)NS(C)(=O)=O)cc2Cl)c1 [Example 250, 3-chloro-4-(3-methylphenoxy)-N-(methylsulfonyl)benzamide]",5.85
8,"CS(=O)(=O)NC(=O)c1ccc(Oc2ccc(C#N)cc2)c(Cl)c1 [Example 270, 3-chloro-4-(4-cyanophenoxy)-N-(methylsulfonyl)benzamide]",5.43
9,"CS(=O)(=O)NC(=O)c1cc(F)c(Oc2cccc(F)c2)cc1F [Example 142, 2,5-difluoro-4-(3-fluorophenoxy)-N-(methylsulfonyl)benzamide]",< 5.52
10,"O=C(NS(=O)(=O)c1ccccc1)c1cc(F)c(Oc2ccc(Cl)c(C(F)(F)F)c2)cc1F [Example 57, 4-[4-chloro-3-(trifluoromethyl)phenoxy]-2,5-difluoro-N-(phenylsulfonyl)benzamide]",6.04
11,"COc1cc(Oc2ccc(Cl)c(C)c2)ccc1C(=O)NS(C)(=O)=O [Example 231, 4-(4-chloro-3-methylphenoxy)-2-methoxy-N-(methylsulfonyl)benzamide]",5.41
12,"COc1ccc(Cl)cc1Oc1cc(F)c(C(=O)NS(C)(=O)=O)cc1Cl [Example 54, 5-chloro-4-(5-chloro-2-methoxyphenoxy)-2-fluoro-N-(methylsulfonyl)benzamide]",5.64
13,"CS(=O)(=O)NC(=O)c1ccc(Oc2ccc(Cl)c(C(F)(F)F)c2)c(Cl)c1 [Example 44, 3-chloro-4-[4-chloro-3-(trifluoromethyl)phenoxy]-N-(methylsulfonyl)benzamide]",5.70
14,"Cn1nccc1-c1cc(Cl)ccc1Oc1ccc(C(=O)NS(C)(=O)=O)cc1 [Example 83, 4-(4-chloro-2-(1-methyl-1H-pyrazol-5-yl)phenoxy)-N-(methylsulfonyl)benzamide]",< 5.52
15,"COc1cc(C)cc(Oc2ccc(C(=O)NS(C)(=O)=O)cc2)c1 [Example 204, 4-(3-methoxy-5-methylphenoxy)-N-(methylsulfonyl)benzamide]",4.68
16,"CC(C)Oc1ccccc1Oc1cc(F)c(C(=O)NS(C)(=O)=O)cc1F [Example 90, 2,5-difluoro-4-(2-isopropoxyphenoxy)-N-(methylsulfonyl)benzamide]",< 6.52

# Results, then the molecule that gave them:
row,pIC50,SMILES
1,4.77,"CS(=O)(=O)NC(=O)c1ccc(Oc2cc(F)ccc2F)cc1 [Example 166, 4-(2,5-difluorophenoxy)-N-(methylsulfonyl)benzamide]"
2,6.33,"COc1cc(Cl)ccc1Oc1cc(F)c(C(=O)NS(C)(=O)=O)cc1Cl [Example 52, 5-chloro-4-(4-chloro-2-methoxyphenoxy)-2-fluoro-N-(methylsulfonyl)benzamide]"
3,4.47,"COc1ccc(Oc2ccc(C(=O)NS(C)(=O)=O)cc2)cc1 [Example 186, 4-(4-methoxyphenoxy)-N-(methylsulfonyl)benzamide]"
4,5.16,"CS(=O)(=O)NC(=O)c1cc(F)c(Oc2cccc(Cl)c2Cl)cc1F [Example 87, 4-(2,3-dichlorophenoxy)-2,5-difluoro-N-(methylsulfonyl)benzamide]"
5,5.74,"CS(=O)(=O)NC(=O)c1ccc(Oc2ccc(Cl)c(F)c2)cc1 [Example 220, 4-(4-chloro-3-fluorophenoxy)-N-(methylsulfonyl)benzamide]"
6,5.06,"Cc1ccc(Oc2ccc(C(=O)NS(C)(=O)=O)cc2)cc1 [Example 304, 4-(4-methylphenoxy)-N-(methylsulfonyl)benzamide]"
7,6.41,"CS(=O)(=O)NC(=O)c1cc(Cl)c(Oc2ccc(F)cc2)cc1F [Example 296, 5-chloro-2-fluoro-4-(4-fluorophenoxy)-N-(methylsulfonyl)benzamide]"
8,< 6.00,"COc1cc(Cl)ccc1Oc1ccc(C(=O)NS(C)(=O)=O)cc1F [Example 65, 4-(4-chloro-2-methoxyphenoxy)-3-fluoro-N-(methylsulfonyl)benzamide]"
9,4.66,"CS(=O)(=O)NC(=O)c1ccc(Oc2cccc(F)c2F)cc1 [Example 195, 4-(2,3-difluorophenoxy)-N-(methylsulfonyl)benzamide]"
10,5.82,"CS(=O)(=O)NC(=O)c1cc(F)c(Oc2cc(Cl)cc(Cl)c2)cc1F [Example 101, 4-(3,5-dichlorophenoxy)-2,5-difluoro-N-(methylsulfonyl)benzamide]"
11,6.37,"O=C(NS(=O)(=O)C1CC1)c1ccc(Oc2ccc(Cl)cc2)cc1 [Example 26, 4-(4-chlorophenoxy)-N-(cyclopropylsulfonyl)benzamide]"
12,5.37,"CCOc1cccc(Oc2ccc(C(=O)NS(C)(=O)=O)cc2C#N)c1 [Example 281, 3-cyano-4-(3-ethoxyphenoxy)-N-(methylsulfonyl)benzamide]"
13,< 5.52,"COc1ccc(C#N)cc1Oc1cc(F)c(C(=O)NS(C)(=O)=O)cc1F [Example 88, 4-(5-cyano-2-methoxyphenoxy)-2,5-difluoro-N-(methylsulfonyl)benzamide]"
14,5.27,"Cc1cc(Cl)cc(Oc2cc(F)c(C(=O)NS(C)(=O)=O)cc2F)c1 [Example 155, 4-(3-chloro-5-methylphenoxy)-2,5-difluoro-N-(methylsulfonyl)benzamide]"
